The kinase profiling compilation of Christmann-Franck et al. (2016)

Tests used:
Experiment in all cases: radiometric filter-binding kinase assay
MAPK9 (human) = MAPK9 (human) (UniProt P45984)
CAMKK2 (human) = CAMKK2 (human) (UniProt Q96RR4)
ERBB4 (human) = ERBB4 (human) (UniProt Q15303)
BRSK2 (human) = BRSK2 (human) (UniProt Q8IWQ3)
PAK7 (human) = PAK7 (human) (UniProt Q9P286)
SYK (human) = SYK (human) (UniProt P43405)
MAP3K5 (human) = MAP3K5 (human) (UniProt Q99683)
PRKCZ (human) = PRKCZ (human) (UniProt Q05513)
PHKG1 (human) = PHKG1 (human) (UniProt Q16816)
EEF2K (human) = EEF2K (human) (UniProt O00418)
MAPK12 (human) = MAPK12 (human) (UniProt P53778)
MAP2K2 (human) = MAP2K2 (human) (UniProt P36507)
PIM2 (human) = PIM2 (human) (UniProt Q9P1W9)
BRSK1 (human) = BRSK1 (human) (UniProt Q8TDC3)
MKNK1 (human) = MKNK1 (human) (UniProt Q9BUB5)
MAPK13 (human) = MAPK13 (human) (UniProt O15264)
Chain of MAPK13 (human) (O15264 whole entry, looked up): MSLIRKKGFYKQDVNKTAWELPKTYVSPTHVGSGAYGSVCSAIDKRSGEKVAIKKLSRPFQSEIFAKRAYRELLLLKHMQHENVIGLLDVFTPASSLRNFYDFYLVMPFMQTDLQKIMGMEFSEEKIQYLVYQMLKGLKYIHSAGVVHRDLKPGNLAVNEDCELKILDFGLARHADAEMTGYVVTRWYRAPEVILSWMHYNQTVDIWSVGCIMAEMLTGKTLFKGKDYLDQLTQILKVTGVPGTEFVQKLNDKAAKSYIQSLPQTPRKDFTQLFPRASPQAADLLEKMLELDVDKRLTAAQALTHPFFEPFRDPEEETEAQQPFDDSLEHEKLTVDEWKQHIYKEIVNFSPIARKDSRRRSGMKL

FGFR1 (human) = FGFR1 (human) (UniProt P11362)
STK3 (human) = STK3 (human) (UniProt Q13188)
Chain of STK3 (human) (Q13188 whole entry, looked up): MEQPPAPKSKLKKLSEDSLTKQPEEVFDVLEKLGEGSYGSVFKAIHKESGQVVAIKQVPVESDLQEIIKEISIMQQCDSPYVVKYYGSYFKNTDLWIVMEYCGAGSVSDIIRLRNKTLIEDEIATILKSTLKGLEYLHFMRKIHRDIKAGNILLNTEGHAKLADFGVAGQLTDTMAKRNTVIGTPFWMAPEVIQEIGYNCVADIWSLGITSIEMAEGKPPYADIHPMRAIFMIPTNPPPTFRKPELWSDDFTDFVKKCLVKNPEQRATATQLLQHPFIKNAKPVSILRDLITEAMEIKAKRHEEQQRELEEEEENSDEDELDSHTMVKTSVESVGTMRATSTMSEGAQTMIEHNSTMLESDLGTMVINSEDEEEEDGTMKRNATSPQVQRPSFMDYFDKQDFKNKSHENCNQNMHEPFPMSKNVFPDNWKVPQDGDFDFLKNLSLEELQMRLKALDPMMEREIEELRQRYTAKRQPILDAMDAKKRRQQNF

MARK1 (human) = MARK1 (human) (UniProt Q9P0L2)
Chain of MARK1 (human) (Q9P0L2 whole entry, looked up): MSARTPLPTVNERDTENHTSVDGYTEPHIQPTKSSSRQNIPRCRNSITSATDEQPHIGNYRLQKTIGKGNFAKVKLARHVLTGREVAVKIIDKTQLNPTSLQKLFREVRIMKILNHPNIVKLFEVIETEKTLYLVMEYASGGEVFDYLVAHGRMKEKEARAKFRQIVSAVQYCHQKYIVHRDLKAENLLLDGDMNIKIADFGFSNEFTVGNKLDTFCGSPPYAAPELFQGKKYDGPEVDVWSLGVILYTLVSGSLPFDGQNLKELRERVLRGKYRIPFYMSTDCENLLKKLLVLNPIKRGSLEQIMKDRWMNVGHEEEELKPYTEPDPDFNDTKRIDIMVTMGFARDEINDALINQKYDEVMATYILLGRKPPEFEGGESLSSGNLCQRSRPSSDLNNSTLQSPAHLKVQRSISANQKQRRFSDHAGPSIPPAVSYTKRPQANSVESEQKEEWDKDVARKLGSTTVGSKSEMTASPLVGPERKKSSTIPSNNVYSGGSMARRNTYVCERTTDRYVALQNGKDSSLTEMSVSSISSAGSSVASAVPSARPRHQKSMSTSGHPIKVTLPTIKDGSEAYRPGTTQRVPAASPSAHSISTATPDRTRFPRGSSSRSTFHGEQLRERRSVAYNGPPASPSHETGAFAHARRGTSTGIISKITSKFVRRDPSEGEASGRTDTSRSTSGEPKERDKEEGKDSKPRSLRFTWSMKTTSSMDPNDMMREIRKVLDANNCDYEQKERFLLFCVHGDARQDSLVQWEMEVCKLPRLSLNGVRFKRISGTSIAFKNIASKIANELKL

DAPK1 (human) = DAPK1 (human) (UniProt P53355)
Chain of DAPK1 (human) (P53355 whole entry, looked up): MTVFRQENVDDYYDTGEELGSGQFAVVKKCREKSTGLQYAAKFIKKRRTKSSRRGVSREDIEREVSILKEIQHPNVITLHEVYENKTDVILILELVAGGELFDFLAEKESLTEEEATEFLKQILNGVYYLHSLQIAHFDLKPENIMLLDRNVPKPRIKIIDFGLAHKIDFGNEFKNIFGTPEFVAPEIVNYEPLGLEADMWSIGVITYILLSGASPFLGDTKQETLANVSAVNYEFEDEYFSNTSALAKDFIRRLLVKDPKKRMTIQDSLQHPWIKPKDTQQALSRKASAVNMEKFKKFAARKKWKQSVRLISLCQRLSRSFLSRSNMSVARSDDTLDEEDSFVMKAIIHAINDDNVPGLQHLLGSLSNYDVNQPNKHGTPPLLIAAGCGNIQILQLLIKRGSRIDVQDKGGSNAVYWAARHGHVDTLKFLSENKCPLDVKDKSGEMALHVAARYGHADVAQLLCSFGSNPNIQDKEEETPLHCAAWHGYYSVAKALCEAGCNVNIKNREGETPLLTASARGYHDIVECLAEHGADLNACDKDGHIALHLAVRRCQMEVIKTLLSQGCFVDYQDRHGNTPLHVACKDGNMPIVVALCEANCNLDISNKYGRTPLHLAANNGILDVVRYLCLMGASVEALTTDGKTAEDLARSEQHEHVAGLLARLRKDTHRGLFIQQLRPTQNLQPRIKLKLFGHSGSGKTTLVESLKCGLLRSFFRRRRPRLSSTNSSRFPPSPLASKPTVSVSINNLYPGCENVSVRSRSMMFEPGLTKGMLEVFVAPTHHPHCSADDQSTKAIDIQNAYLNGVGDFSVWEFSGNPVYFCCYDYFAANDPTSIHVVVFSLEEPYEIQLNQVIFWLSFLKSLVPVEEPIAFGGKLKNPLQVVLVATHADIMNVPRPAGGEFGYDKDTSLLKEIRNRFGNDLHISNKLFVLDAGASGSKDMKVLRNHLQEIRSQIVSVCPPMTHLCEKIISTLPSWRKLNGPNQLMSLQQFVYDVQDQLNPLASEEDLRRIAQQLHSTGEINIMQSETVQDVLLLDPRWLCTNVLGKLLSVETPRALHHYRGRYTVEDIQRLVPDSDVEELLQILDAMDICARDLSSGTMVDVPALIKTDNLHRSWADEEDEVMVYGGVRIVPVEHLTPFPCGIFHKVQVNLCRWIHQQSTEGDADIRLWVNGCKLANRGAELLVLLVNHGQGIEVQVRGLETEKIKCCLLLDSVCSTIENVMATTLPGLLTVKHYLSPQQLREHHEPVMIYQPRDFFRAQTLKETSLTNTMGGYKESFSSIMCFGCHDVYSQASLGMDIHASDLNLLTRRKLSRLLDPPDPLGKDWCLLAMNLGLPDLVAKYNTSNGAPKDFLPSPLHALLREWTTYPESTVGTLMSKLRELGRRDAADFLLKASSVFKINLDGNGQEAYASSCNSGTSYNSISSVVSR

HIPK3 (human) = HIPK3 (human) (UniProt Q9H422)
PRKAA1 or PRKAA2 (rat) = details: accession and sequence are those of the human protein
DYRK1A (human) = DYRK1A (human) (UniProt Q13627)
PRKACA (human) = PRKACA (human) (UniProt P17612)
EPHB4 (human) = EPHB4 (human) (UniProt P54760)
MAPK3 (human) = MAPK3 (human) (UniProt P27361)
MAPKAPK2 (human) = MAPKAPK2 (human) (UniProt P49137)
Chain of MAPKAPK2 (human) (P49137 whole entry, looked up): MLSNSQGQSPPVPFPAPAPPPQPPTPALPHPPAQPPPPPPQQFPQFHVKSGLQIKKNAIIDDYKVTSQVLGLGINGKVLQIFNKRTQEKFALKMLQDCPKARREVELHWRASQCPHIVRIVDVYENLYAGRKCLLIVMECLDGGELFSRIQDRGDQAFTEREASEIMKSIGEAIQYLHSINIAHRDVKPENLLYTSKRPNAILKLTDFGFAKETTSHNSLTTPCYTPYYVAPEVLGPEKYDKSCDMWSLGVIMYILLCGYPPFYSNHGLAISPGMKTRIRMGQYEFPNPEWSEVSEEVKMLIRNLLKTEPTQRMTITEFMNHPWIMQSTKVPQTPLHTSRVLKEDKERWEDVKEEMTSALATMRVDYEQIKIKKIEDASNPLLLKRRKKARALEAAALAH

IKBKE (human) = IKBKE (human) (UniProt Q14164)
Chain of IKBKE (human) (Q14164 whole entry, looked up): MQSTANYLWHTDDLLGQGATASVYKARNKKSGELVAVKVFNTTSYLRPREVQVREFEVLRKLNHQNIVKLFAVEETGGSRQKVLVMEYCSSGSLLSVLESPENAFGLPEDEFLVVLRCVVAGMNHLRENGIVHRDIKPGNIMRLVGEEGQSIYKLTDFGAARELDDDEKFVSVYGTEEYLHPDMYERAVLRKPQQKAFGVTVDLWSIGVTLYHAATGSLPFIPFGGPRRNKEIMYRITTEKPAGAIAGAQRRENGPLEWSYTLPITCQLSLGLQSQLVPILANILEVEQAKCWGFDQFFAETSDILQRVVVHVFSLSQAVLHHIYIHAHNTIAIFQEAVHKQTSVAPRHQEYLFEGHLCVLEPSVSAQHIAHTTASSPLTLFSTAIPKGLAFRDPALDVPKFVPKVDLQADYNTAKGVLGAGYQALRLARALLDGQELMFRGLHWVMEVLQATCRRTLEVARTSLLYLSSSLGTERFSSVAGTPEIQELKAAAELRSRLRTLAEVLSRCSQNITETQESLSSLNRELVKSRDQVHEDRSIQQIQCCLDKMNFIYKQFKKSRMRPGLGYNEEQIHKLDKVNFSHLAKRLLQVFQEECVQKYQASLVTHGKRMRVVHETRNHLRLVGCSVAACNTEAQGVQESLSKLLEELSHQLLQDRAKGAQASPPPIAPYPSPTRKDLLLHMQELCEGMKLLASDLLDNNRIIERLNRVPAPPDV

IGF1R (human) = IGF1R (human) (UniProt P08069)
PIM3 (human) = PIM3 (human) (UniProt Q86V86)
GSK3B (human) = GSK3B (human) (UniProt P49841)
PIM1 (human) = PIM1 (human) (UniProt P11309)
MAPKAPK5 (human) = MAPKAPK5 (human) (UniProt Q8IW41)
MAP2K6 (human) = MAP2K6 (human) (UniProt P52564)
MELK (human) = MELK (human) (UniProt Q14680)
[1] = tested on: SGK1 (human), O00141 [S422D]

Chain of BRSK2 (human) (Q8IWQ3 whole entry, looked up): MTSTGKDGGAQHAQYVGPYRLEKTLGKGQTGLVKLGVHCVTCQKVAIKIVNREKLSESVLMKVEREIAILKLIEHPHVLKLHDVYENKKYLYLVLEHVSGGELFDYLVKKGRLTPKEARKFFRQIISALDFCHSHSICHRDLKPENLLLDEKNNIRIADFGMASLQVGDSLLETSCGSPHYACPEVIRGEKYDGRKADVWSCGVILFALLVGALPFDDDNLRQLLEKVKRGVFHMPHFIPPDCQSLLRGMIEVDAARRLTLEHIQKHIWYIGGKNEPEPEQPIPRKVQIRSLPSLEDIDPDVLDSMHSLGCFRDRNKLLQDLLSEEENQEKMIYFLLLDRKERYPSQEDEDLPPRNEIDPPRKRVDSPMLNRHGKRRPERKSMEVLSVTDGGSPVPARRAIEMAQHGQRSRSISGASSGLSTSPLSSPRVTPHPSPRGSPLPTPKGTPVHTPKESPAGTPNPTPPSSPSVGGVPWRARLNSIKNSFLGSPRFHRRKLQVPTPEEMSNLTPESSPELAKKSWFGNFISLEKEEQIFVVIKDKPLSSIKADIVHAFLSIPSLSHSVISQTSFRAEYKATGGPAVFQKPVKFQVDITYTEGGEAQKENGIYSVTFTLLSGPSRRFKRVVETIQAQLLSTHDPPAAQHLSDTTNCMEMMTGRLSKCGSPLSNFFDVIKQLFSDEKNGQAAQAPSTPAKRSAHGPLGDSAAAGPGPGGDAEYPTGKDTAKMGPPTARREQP

residual activity (MAPK9 (human); compound 0.01 µM): 89%
residual activity (MAPK9 (human); compound 0.1 µM): 84%
residual activity (MAPK9 (human); compound 1.0 µM): 90%
residual activity (CAMKK2 (human); compound 0.01 µM): 108%
residual activity (CAMKK2 (human); compound 0.1 µM): 96%
residual activity (CAMKK2 (human); compound 1.0 µM): 105%
residual activity (ERBB4 (human); compound 0.01 µM): 106%
residual activity (ERBB4 (human); compound 0.1 µM): 88%
residual activity (ERBB4 (human); compound 1.0 µM): 88%
residual activity (BRSK2 (human); compound 0.01 µM): 116%
residual activity (BRSK2 (human); compound 0.1 µM): 116%
residual activity (BRSK2 (human); compound 1.0 µM): 109%
residual activity (PAK7 (human); compound 0.01 µM): 97%
residual activity (PAK7 (human); compound 0.1 µM): 114%
residual activity (PAK7 (human); compound 1.0 µM): 91%
residual activity (SYK (human); compound 0.01 µM): 107%
residual activity (SYK (human); compound 0.1 µM): 99%
residual activity (MAP3K5 (human); compound 0.01 µM): 98%
residual activity (MAP3K5 (human); compound 0.1 µM): 54%
residual activity (MAP3K5 (human); compound 1.0 µM): 11%
residual activity (PRKCZ (human); compound 0.01 µM): 96%
residual activity (PRKCZ (human); compound 1.0 µM): 84%
residual activity (PHKG1 (human); compound 0.01 µM): 104%
residual activity (PHKG1 (human); compound 0.1 µM): 115%
residual activity (PHKG1 (human); compound 1.0 µM): 92%
residual activity (EEF2K (human); compound 0.01 µM): 99%
residual activity (EEF2K (human); compound 0.1 µM): 118%
residual activity (EEF2K (human); compound 1.0 µM): 84%
residual activity (MAPK12 (human); compound 0.01 µM): 71%
residual activity (MAPK12 (human); compound 0.1 µM): 102%
residual activity (MAPK12 (human); compound 1.0 µM): 80%
residual activity (MAP2K2 (human); compound 0.01 µM): 90%
residual activity (MAP2K2 (human); compound 0.1 µM): 90%
residual activity (MAP2K2 (human); compound 1.0 µM): 69%
residual activity (PIM2 (human); compound 0.01 µM): 106%
residual activity (PIM2 (human); compound 0.1 µM): 109%
residual activity (PIM2 (human); compound 1.0 µM): 108%
residual activity (BRSK1 (human); compound 0.01 µM): 102%
residual activity (BRSK1 (human); compound 0.1 µM): 90%
residual activity (BRSK1 (human); compound 1.0 µM): 95%
residual activity (MKNK1 (human); compound 0.01 µM): 94%
residual activity (MKNK1 (human); compound 0.1 µM): 99%
residual activity (MKNK1 (human); compound 1.0 µM): 98%
residual activity (MAPK13 (human); compound 0.01 µM): 102%
residual activity (MAPK13 (human); compound 0.1 µM): 90%
residual activity (MAPK13 (human); compound 1.0 µM): 90%
residual activity (FGFR1 (human); compound 0.01 µM): 111%
residual activity (FGFR1 (human); compound 0.1 µM): 105%
residual activity (FGFR1 (human); compound 1.0 µM): 101%
residual activity (STK3 (human); compound 0.01 µM): 99%
residual activity (STK3 (human); compound 0.1 µM): 116%
residual activity (STK3 (human); compound 1.0 µM): 93%
residual activity (MARK1 (human); compound 0.01 µM): 93%
residual activity (MARK1 (human); compound 0.1 µM): 90%
residual activity (MARK1 (human); compound 1.0 µM): 86%
residual activity (DAPK1 (human); compound 0.01 µM): 112%
residual activity (DAPK1 (human); compound 0.1 µM): 95%
residual activity (DAPK1 (human); compound 1.0 µM): 95%
residual activity (HIPK3 (human); compound 0.01 µM): 101%
residual activity (HIPK3 (human); compound 0.1 µM): 102%
residual activity (HIPK3 (human); compound 1.0 µM): 96%
residual activity (PRKAA1 or PRKAA2 (rat); compound 0.01 µM): 108%
residual activity (PRKAA1 or PRKAA2 (rat); compound 0.1 µM): 93%
residual activity (PRKAA1 or PRKAA2 (rat); compound 1.0 µM): 108%
residual activity (DYRK1A (human); compound 0.01 µM): 94%
residual activity (DYRK1A (human); compound 0.1 µM): 92%
residual activity (DYRK1A (human); compound 1.0 µM): 81%
residual activity (PRKACA (human); compound 0.01 µM): 98%
residual activity (PRKACA (human); compound 0.1 µM): 99%
residual activity (PRKACA (human); compound 1.0 µM): 88%
residual activity (EPHB4 (human); compound 0.01 µM): 106%
residual activity (EPHB4 (human); compound 0.1 µM): 104%
residual activity (EPHB4 (human); compound 1.0 µM): 96%
residual activity (MAPK3 (human); compound 0.01 µM): 120%
residual activity (MAPK3 (human); compound 0.1 µM): 127%
residual activity (MAPK3 (human); compound 1.0 µM): 116%
residual activity (MAPKAPK2 (human); compound 0.01 µM): 99%
residual activity (MAPKAPK2 (human); compound 0.1 µM): 102%
residual activity (MAPKAPK2 (human); compound 1.0 µM): 99%
residual activity (IKBKE (human); compound 0.01 µM): 114%
residual activity (IKBKE (human); compound 0.1 µM): 106%
residual activity (IKBKE (human); compound 1.0 µM): 96%
residual activity (IGF1R (human); compound 0.01 µM): 88%
residual activity (IGF1R (human); compound 0.1 µM): 89%
residual activity (IGF1R (human); compound 1.0 µM): 79%
residual activity (PIM3 (human); compound 0.01 µM): 104%
residual activity (PIM3 (human); compound 0.1 µM): 101%
residual activity (PIM3 (human); compound 1.0 µM): 95%
residual activity (GSK3B (human); compound 0.01 µM): 87%
residual activity (GSK3B (human); compound 0.1 µM): 92%
residual activity (GSK3B (human); compound 1.0 µM): 79%
residual activity (PIM1 (human); compound 0.01 µM): 104%
residual activity (PIM1 (human); compound 0.1 µM): 96%
residual activity (PIM1 (human); compound 1.0 µM): 98%
residual activity (MAPKAPK5 (human); compound 0.01 µM): 97%
residual activity (MAPKAPK5 (human); compound 0.1 µM): 112%
residual activity (MAPKAPK5 (human); compound 1.0 µM): 98%
residual activity (MAP2K6 (human); compound 0.01 µM): 100%
residual activity (MAP2K6 (human); compound 0.1 µM): 110%
residual activity (MAP2K6 (human); compound 1.0 µM): 85%
residual activity (MELK (human); compound 0.01 µM): 97%
residual activity (MELK (human); compound 0.1 µM): 107%
residual activity (MELK (human); compound 1.0 µM): 92%
residual activity ([1]; compound 0.01 µM): 103%
residual activity ([1]; compound 1.0 µM): 100%
SMILES: O=C(Nc1nc2cc(C(F)(F)F)cc(NC3CC3)n2n1)c1cccnc1
